Laboratory results from patent publication US20240366581A1 (Hoffmann-La Roche Inc., priority 2022, published 2024).
Where a name gives a salt, the structure may show the parent alone.

Columns and labels:
Assay type in all cases: biochemical
[1] = target: SIK2 (Homo sapiens (Human), UniProt Q9H0K1); assay: SIK2 enzymatic activity assay, RapidFire mass spectrometry (CHK-peptide phosphorylation); settings: 0.5 nM SIK2, CHK-peptide, ATP, 30 min pre-incubation, 45 min reaction, RapidFire MS; read-out: SIK2 RF IC50
Description: (§1) In the presence of SIK2 (resp. SIK1 or SIK3) and ATP the CHK-peptide ([…] with C-terminal arginine amide modification) were phosphorylated at one of the four feasible serine's. Only one phosphorylation is observed under the assay conditions. 60 nl of each compound dilution series (12 point; dilution factor 3, generally 30 μM to 170 pM) in DMSO were transferred by acoustic dispensing to the assay plate and 30 min pre-incubated (ambient temperature) after the addition of 5 μl SIK1 (5 nM) resp. 5 μl SIK2 (0.5 nM) or 7 μl SIK3 (1.5 nM) in assay-buffer (12.5 mM HEPES (pH 7.0), 10 mM magnesium acetate, 0.005% BSA). 10 μM CHK-peptide solution and 5 μl 100 μM ATP for SIK1 & SIK2 resp. 3 μl for SIK3 in assay-buffer were added and incubated ambient for 45 min. 40 μl 0.125% formic acid in water were added to quench the reaction. RapidFire (RF) Mass Spectrometry was utilized for data generation as described below. The multiple charged species (3-5 charges) for the phosphorylated and non-phosphorylated form measured by MRM (Multiple Reaction Monitoring; API5000 or 6500+) or EIC (Extracted Ion Current; QToF) were summed up and the ratio calculated (sum phosphorylated species/sum all species) for data evaluation. Normalization was performed by Genedata software based on the non-inhibition control DMSO and the commercially available SIK inhibitor @ 1 μM YKL-05-099 (CAS number 1936529-65-5). The results of the assay are expressed in half-maximal inhibitory concentrations (IC50s) and are summarized below in Table 1.
(§2) Samples were aspirated by vacuum for max. 600 ms and loaded to C4-cartridge (Agilent; #G9203A) for 3000 ms@1.5 ml/min with 0.1% formic acid in water. Afterwards samples were transferred to the API5000 (API6500+) or QToF mass spectrometer for 4000 ms@1.25 ml/min with 90% acetonitrile; 10% water; 0.007% TFA; 0.093 formic acid. The cartridge was reconditioned for additional 500 ms with 0.1% formic acid in water
(§3) All MS analyses using the following MS-setup in MRM mode: Electrospray positive; Ion Spray Voltage: 4000V; Temperature: 550° C.; Collision Gas: 5; Curtain Gas: 15; Gas1: 40; Gas 2: 42; EP: 10
(§4) All MS analyses using the following MS-setup in Mode MS: Dual AJS Electrospray positive; VCap: 3000V; Drying & Sheath gas: 340° C.@81/min; Nebulizer: 60 psig; Nozzle Voltage: 2000V; Fragmentor: 130V; Skimmer: 35V; Oct1 RF Vpp: 700V; Ref masses on@5spectra/s

[2] = target: SIK3 (Homo sapiens (Human), UniProt Q9Y2K2); assay: SIK3 enzymatic activity assay, RapidFire mass spectrometry (CHK-peptide phosphorylation); settings: 1.5 nM SIK3, CHK-peptide, ATP, 30 min pre-incubation, 45 min reaction, RapidFire MS; read-out: SIK3 RF IC50
Description: as §1, §2, §3, §4

[3] = target: SIK1 (Homo sapiens (Human), UniProt P57059); assay: SIK1 enzymatic activity assay, RapidFire mass spectrometry (CHK-peptide phosphorylation); settings: 5 nM SIK1, CHK-peptide, ATP, 30 min pre-incubation, 45 min reaction, RapidFire MS; read-out: SIK1 RF IC50
Description: as §1, §2, §3, §4

Sequence of SIK2 (Q9H0K1 whole entry): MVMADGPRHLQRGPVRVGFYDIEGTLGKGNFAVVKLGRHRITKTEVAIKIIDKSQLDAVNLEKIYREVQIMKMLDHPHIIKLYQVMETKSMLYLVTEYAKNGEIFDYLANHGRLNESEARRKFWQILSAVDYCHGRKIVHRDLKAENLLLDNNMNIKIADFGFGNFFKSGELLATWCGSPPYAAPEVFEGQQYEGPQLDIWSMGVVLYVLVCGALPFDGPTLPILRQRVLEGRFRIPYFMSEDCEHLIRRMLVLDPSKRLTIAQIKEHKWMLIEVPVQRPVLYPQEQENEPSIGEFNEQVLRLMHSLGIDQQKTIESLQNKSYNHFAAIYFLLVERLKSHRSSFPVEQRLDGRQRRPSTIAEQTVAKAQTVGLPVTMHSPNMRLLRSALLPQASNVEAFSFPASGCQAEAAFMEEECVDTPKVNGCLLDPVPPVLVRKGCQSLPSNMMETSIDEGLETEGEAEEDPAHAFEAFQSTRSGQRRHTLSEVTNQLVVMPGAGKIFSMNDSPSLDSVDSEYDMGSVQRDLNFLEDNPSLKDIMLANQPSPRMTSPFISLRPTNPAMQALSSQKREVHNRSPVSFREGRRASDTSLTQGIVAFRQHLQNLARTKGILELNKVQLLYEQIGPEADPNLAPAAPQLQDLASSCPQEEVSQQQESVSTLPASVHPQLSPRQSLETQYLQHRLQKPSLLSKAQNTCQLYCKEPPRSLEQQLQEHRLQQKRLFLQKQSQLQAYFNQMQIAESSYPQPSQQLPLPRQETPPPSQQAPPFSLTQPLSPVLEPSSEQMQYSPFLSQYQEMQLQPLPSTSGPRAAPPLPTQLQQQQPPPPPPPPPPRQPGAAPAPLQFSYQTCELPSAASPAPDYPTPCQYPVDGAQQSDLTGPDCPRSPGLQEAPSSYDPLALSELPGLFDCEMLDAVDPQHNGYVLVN
Sequence of SIK3 (Q9Y2K2 whole entry): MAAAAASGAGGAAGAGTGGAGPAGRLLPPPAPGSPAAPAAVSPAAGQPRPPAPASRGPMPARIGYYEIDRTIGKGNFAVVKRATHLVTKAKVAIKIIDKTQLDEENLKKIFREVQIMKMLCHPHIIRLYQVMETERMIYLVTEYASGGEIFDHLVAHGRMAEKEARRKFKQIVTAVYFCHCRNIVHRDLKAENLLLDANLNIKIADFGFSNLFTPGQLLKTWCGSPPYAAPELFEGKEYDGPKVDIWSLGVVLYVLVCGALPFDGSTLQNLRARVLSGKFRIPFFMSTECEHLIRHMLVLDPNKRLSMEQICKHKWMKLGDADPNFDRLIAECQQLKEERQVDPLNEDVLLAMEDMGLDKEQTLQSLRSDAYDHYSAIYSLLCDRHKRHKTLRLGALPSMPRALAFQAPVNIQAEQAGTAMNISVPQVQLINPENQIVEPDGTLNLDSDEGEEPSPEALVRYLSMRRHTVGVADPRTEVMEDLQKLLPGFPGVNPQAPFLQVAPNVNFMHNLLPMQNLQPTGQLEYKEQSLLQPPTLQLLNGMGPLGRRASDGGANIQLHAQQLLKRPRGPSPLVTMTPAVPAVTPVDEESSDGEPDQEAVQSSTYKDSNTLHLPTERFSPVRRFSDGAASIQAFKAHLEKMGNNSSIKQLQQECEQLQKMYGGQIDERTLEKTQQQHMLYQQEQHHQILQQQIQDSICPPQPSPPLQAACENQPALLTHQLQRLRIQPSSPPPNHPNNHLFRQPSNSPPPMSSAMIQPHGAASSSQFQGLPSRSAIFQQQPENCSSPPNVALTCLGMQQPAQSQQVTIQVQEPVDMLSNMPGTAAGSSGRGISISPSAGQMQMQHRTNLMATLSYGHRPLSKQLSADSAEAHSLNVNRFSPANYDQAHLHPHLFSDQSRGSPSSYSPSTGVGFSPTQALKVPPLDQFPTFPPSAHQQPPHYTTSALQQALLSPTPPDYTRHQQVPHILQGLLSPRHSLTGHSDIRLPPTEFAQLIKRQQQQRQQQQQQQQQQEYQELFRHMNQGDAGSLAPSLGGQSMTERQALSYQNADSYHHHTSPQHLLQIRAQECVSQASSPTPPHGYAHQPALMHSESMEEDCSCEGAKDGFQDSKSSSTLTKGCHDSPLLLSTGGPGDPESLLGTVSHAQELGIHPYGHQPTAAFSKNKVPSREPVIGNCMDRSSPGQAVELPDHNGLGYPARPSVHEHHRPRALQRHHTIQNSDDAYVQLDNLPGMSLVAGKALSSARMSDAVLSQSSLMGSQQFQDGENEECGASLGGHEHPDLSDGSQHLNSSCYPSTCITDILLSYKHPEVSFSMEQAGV
Sequence of SIK1 (P57059 whole entry): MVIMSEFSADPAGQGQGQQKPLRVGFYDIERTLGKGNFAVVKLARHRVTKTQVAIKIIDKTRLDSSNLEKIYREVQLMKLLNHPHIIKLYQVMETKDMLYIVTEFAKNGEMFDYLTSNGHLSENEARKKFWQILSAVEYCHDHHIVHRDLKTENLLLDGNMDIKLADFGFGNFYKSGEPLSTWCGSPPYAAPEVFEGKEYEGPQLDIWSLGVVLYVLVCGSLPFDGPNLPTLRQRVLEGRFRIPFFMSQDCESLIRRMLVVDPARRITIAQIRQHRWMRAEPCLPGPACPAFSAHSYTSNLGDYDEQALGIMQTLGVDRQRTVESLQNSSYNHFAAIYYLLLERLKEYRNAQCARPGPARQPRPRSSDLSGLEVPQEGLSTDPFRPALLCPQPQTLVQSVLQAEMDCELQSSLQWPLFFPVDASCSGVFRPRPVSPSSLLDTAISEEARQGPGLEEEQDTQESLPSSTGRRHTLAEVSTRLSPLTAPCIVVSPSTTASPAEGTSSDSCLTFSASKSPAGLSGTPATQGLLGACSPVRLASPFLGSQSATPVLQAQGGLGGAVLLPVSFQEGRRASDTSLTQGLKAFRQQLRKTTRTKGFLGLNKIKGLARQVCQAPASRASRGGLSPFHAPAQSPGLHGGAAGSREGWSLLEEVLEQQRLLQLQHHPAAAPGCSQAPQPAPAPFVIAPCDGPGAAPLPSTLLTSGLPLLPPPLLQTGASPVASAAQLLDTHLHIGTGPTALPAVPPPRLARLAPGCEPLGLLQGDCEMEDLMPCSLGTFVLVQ

Row | SMILES | IC50 [1] | IC50 [2] | IC50 [3]
1 | COc1cc2ncn(-c3ccc(C(N)=O)c(NC(CCN)c4ccsc4)n3)c2cc1OC (stereo not shown) [Example 4, 2-[[3-amino-1-(3-thienyl)propyl]amino]-6-(5,6-dimethoxybenzimidazol-1-yl)pyridine-3-carboxamide hydrochloride] | 3.3 nM | 114 nM | 3.4 nM
2 | COc1cc2ncn(-c3ccc(C(N)=O)c(NC(CCN)c4ccccc4)n3)c2cc1OC (stereo not shown) [Example 5, 2-[(3-amino-1-phenyl-propyl)amino]-6-(5,6-dimethoxybenzimidazol-1-yl)pyridine-3-carboxamide hydrochloride] | 9.5 nM | 331 nM | 7.4 nM
3 | COc1cc2ncn(-c3ccc(C(N)=O)c(NCCc4ccccc4)n3)c2cc1OC [Example 6, 6-(5,6-dimethoxybenzimidazol-1-yl)-2-(2-phenylethylamino)pyridine-3-carboxamide] | 2.5 nM | 39.9 nM | 2.8 nM
4 | COc1cc2ncn(-c3ccc(C(N)=O)c(NC(CN)c4ccsc4)n3)c2cc1OC (stereo not shown) [Example 12, 2-[[2-amino-1-(3-thienyl)ethyl]amino]-6-(5,6-dimethoxybenzimidazol-1-yl)pyridine-3-carboxamide hydrochloride] | 2.2 nM | 69.2 nM | 1.7 nM
5 | COC(=O)c1ccc(-n2cnc3cc(OC)c(OC)cc32)nc1N1CCCCC1=O [Example 14, Methyl 6-(5,6-dimethoxy-1H-benzo[d]imidazol-1-yl)-2-(2-oxopiperidin-1-yl)nicotinate] | 5150 nM | 18000 nM | 7480 nM
6 | COC(=O)c1ccc(-n2cnc3cc(OC)c(OC)cc32)nc1N1CCCC1=O [Example 15, Methyl 6-(5,6-dimethoxy-1H-benzo[d]imidazol-1-yl)-2-(2-oxopyrrolidin-1-yl)nicotinate] | 828 nM | 4000 nM | 1570 nM
7 | COc1cc2ncn(-c3ccc(C(=O)O)c(N4CCCCC4)n3)c2cc1OC [Example 16, 6-(5,6-Dimethoxy-1H-benzo[d]imidazol-1-yl)-2-(piperidin-1-yl)nicotinic acid] | 241 nM | 1670 nM | 260 nM
8 | Cc1cc(C#N)nn1-c1nc(-n2cnc3cc(OCCN4CCOCC4)ccc32)ccc1C(N)=O [Example 22, 2-(3-Cyano-5-methyl-pyrazol-1-yl)-6-[5-(2-morpholinoethoxy)benzimidazol-1-yl]pyridine-3-carboxamide] | 7410 nM | 12200 nM | 19800 nM
9 | Cc1ccc(Nc2ccc3c(c2)ncn3-c2ccc(C(N)=O)c(OC(C)C(F)F)n2)nn1 (stereo not shown) [Example 23, 2-(2,2-Difluoro-1-methyl-ethoxy)-6-[5-[(6-methylpyridazin-3-yl)amino]benzimidazol-1-yl]pyridine-3-carboxamide] | 15.2 nM | 4.9 nM | 361 nM
10 | Cc1ccc(Nc2ccc3ncn(-c4ccc(C(N)=O)c(OC(C)C(F)F)n4)c3c2)nn1 (stereo not shown) [Example 24] | 206 nM | 95.7 nM | 605 nM
11 | COc1cc(-n2cnc3cc(Nc4ccc(C)nn4)ccc32)nc(OC)c1C(C)=O [Example 29, 1-[2,4-dimethoxy-6-[5-[(6-methylpyridazin-3-yl)amino]benzimidazol-1-yl]-3-pyridyl]ethanone] | 86.7 nM |  | 1460 nM
12 | CC(=O)c1ccc(-n2cnc3cc4c(cc32)NCC4)nc1-n1nc(C#N)cc1C [Example 30, 1-[3-acetyl-6-(6,7-dihydro-5H-pyrrolo[3,2-f]benzimidazol-3-yl)-2-pyridyl]-5-methyl-pyrazole-3-carbonitrile] | 816 nM |  | 547 nM

More lines, now with the values ahead:

Row | IC50 [1] | IC50 [2] | IC50 [3] | SMILES
13 | 14.2 nM | 57.2 nM | 15.1 nM | COc1cc2ncn(-c3ccc(C(N)=O)c(Oc4ccccc4Cl)n3)c2cc1OC [Example 1, 2-(2-chlorophenoxy)-6-(5,6-dimethoxybenzimidazol-1-yl)pyridine-3-carboxamide]
14 | 3.8 nM | 97.2 nM | 14 nM | COc1cc2ncn(-c3ccc(C(N)=O)c(Nc4ccccc4)n3)c2cc1OC [Example 2, 6-(5,6-Dimethoxy-benzoimidazol-1-yl)-2-phenylamino-nicotinamide]
15 | 7.8 nM | 156 nM | 15.5 nM | COc1cc2ncn(-c3ccc(C(N)=O)c(NCc4ccccc4)n3)c2cc1OC [Example 3, 2-(benzylamino)-6-(5,6-dimethoxybenzimidazol-1-yl)pyridine-3-carboxamide]
16 | 18.2 nM | 188 nM | 29.7 nM | COc1cc2ncn(-c3ccc(C(N)=O)c(NCc4cccs4)n3)c2cc1OC [Example 7, 6-(5,6-dimethoxybenzimidazol-1-yl)-2-(2-thienylmethylamino)pyridine-3-carboxamide]
17 | 16.2 nM | 260 nM | 27.4 nM | COc1cc2ncn(-c3ccc(C(N)=O)c(NCc4ccc(Cl)cc4)n3)c2cc1OC [Example 8, 2-[(4-chlorophenyl)methylamino]-6-(5,6-dimethoxybenzimidazol-1-yl)pyridine-3-carboxamide]
18 | 6.5 nM | 146 nM | 6.2 nM | COc1cc2ncn(-c3ccc(C(N)=O)c(NCCc4cccc(Cl)c4)n3)c2cc1OC [Example 9, 2-[2-(3-chlorophenyl)ethylamino]-6-(5,6-dimethoxybenzimidazol-1-yl)pyridine-3-carboxamide]
19 | 1.2 nM | 44.9 nM | 1.7 nM | COc1cc2ncn(-c3ccc(C(N)=O)c(NC(CN)c4cccc(Cl)c4)n3)c2cc1OC (stereo not shown) [Example 10, 2-[[2-amino-1-(3-chlorophenyl)ethyl]amino]-6-(5,6-dimethoxybenzimidazol-1-yl)pyridine-3-carboxamide hydrochloride]
20 | 15.8 nM | 206 nM | 6.3 nM | COc1cc2ncn(-c3ccc(C(N)=O)c(NC(CCN)c4cccc(Cl)c4)n3)c2cc1OC (stereo not shown) [Example 11, 2-[[3-amino-1-(3-chlorophenyl)propyl]amino]-6-(5,6-dimethoxybenzimidazol-1-yl)pyridine-3-carboxamide hydrochloride]
21 | 995 nM | > 30000 nM | 22500 nM | COC(=O)c1ccc(-n2cnc3cc(OC)c(OC)cc32)nc1-c1cccc(Cl)c1 [Example 13, Methyl 2-(3-chlorophenyl)-6-(5,6-dimethoxy-1H-benzo[d]imidazol-1-yl)nicotinate]
22 | 5070 nM | 21600 nM | 14900 nM | CCNC(=O)c1ccc(-n2cnc3cc(OC)c(OC)cc32)nc1-c1cccc(C#N)c1 [Example 17, 2-(3-cyanophenyl)-6-(5,6-dimethoxybenzimidazol-1-yl)-N-ethyl-pyridine-3-carboxamide]
23 | 5770 nM | 13500 nM | 9470 nM | CNC(=O)c1ccc(-n2cnc3cc(OC)c(OC)cc32)nc1-c1cccc(C#N)c1 [Example 18, 2-(3-Cyanophenyl)-6-(5,6-dimethoxybenzimidazol-1-yl)-N-methyl-pyridine-3-carboxamide; Formic Acid]
24 | 5740 nM | > 10000 nM | 1770 nM | COc1cc2ncn(-c3ccc(C(=O)NC4CC4)c(-c4cccc(C#N)c4)n3)c2cc1OC [Example 19, 2-(3-Cyanophenyl)-N-cyclopropyl-6-(5,6-dimethoxybenzimidazol-1-yl)pyridine-3-carboxamide]
25 | 6240 nM | > 30000 nM | 12100 nM | COc1cc2ncn(-c3ccc(C(=O)NCC(F)(F)F)c(-c4cccc(C#N)c4)n3)c2cc1OC [Example 20, 2-(3-Cyanophenyl)-6-(5,6-dimethoxybenzimidazol-1-yl)-N-(2,2,2-trifluoroethyl)pyridine-3-carboxamide]
26 | 878 nM | 3500 nM | 659 nM | COc1cc2ncn(-c3ccc(C(N)=O)c(-c4cccc(C#N)c4)n3)c2cc1OC [Example 21, 2-(3-Cyanophenyl)-6-(5,6-dimethoxybenzimidazol-1-yl)pyridine-3-carboxamide]
